What was measured:
HT29 cells = assay: CHK1 Cellular Assay - Gemcitabine EC50 Assay; type: cell-based; conditions: HT29 cells, in the presence of gemcitabine at 10 nM, 72 hours, SRB staining; read-out: CHK1 Cellular Activity (EC50 range)
Description: The gemcitabine EC50 assay was developed as a rapid method for screening CHK1 inhibitors to determine their relative cell activity. This assay utilises a feature of the effect of CHK1 inhibitors on gemcitabine toxicity. In the absence of a CHK1 inhibitor, gemcitabine acts predominantly as an anti-metbolite and therefore induces very little cell death, even at high concentrations. This can be as high as 70-80% survival at concentrations in excess of 1 μM. However, in the presence of a CHK1 inhibitor, the mechanism of action of gemcitabine switches to a more classical cytotoxic mode of action. For example, the fraction of cells surviving can be reduced to around 30% and below. Concentrations of gemcitabine can be selected that in the absence of a CHK1 inhibitor, have no effect on cell survival but in the presence of a CHK1 inhibitor are highly cytotoxic. 10000 HT29 cells were plated per well of a 96 well plate and allowed to attach at 37° C. in a 5% CO2 humidified incubator for 18 hours. CHK1 inhibitors were then titrated in the presence of 10, 15 and 20 nM gemcitabine for 72 hours and the EC50 determined by staining with sulforhodamine B (SRB) and determining the absorbance at 540 nm.

CHK1 = target: T1, CHK1 (Homo sapiens, UniProt O14757); assay: CHK1 Enzyme Assay (phosphorylation of Chktide peptide, 33P-ATP filter assay); type: biochemical; conditions: 12.5 nM His-CHK1, 0.01 mM ATP, 40 minutes at 30° C.; read-out: CHK1 Enzyme Activity (IC50 range)
T1 construct: His; purchased Invitrogen
T1 sequence (O14757 1-476): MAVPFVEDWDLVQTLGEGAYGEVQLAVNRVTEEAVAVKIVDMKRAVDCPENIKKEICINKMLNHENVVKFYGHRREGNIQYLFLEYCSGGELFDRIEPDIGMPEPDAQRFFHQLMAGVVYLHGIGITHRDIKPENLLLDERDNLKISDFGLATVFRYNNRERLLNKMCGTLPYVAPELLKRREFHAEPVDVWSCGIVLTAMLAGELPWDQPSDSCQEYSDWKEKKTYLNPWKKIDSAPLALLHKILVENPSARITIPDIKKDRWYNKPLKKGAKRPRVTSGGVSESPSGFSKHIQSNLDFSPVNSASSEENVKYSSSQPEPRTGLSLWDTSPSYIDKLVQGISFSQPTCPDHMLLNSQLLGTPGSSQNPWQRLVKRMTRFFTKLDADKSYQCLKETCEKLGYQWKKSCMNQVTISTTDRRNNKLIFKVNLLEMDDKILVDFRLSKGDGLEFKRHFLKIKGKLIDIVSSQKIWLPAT
Outline: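 His-CHK1 (12.5 nM) phosphorylating 14.8 μM Chktide with 0.01 mM ATP plus 33P-γ-ATP, in 50 mM Hepes-NaOH pH 7.5 with 0.1 mg/mL BSA. Incubated with inhibitor for 40 min at 30 °C. Stopped with phosphoric acid; phosphopeptide captured on filter and counted by scintillation.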

| SMILES | EC50 (HT29 cells) | IC50 (CHK1) |
| --- | --- | --- |
| CCN(CC)CC(C)(C)COc1ccc2[nH]c(-c3cc(NC(=O)c4cnn(Cc5ccccc5)c4)c[nH]c3=O)cc2c1 [Example 178, 1-Benzyl-1H-pyrazole-4-carboxylic acid {5-[5-(3-diethylamino-2,2-dimethyl-propoxy)-1H-indol-2-yl]-6-oxo-1,6-dihydro-pyridin-3-yl}-amide] | < 100 nM | < 100 nM |
| CN(C)CC(C)(C)Oc1ccc2[nH]c(-c3cc(NC(=O)c4cnn(Cc5ccccc5)c4)c[nH]c3=O)cc2c1 [Example 179, 1-Benzyl-1H-pyrazole-4-carboxylic acid {5-[5-(2-dimethylamino-1,1-dimethyl-ethoxy)-1H-indol-2-yl]-6-oxo-1,6-dihydro-pyridin-3-yl}-amide] | < 100 nM | < 100 nM |
| CC(C)(COc1ccc2[nH]c(-c3cc(NC(=O)c4cnn(Cc5ccccc5)c4)c[nH]c3=O)cc2c1)CN1CCCC1 [Example 180, 1-Benzyl-1H-pyrazole-4-carboxylic acid {5-[5-(2,2-dimethyl-3-pyrrolidin-1-yl-propoxy)-1H-indol-2-yl]-6-oxo-1,6-dihydro-pyridin-3-yl}-amide] | < 100 nM | < 100 nM |
| CC(C)(COc1ccc2[nH]c(-c3cc(NC(=O)c4cnn(Cc5ccccc5)c4)c[nH]c3=O)cc2c1)CN1CCCCC1 [Example 185, 1-Benzyl-1H-pyrazole-4-carboxylic acid {5-[5-(2,2-dimethyl-3-piperidin-1-yl-propoxy)-1H-indol-2-yl]-6-oxo-1,6-dihydro-pyridin-3-yl}-amide] | < 100 nM | < 100 nM |
| CCN(CC)CC1(COc2ccc3[nH]c(-c4cc(NC(=O)c5cnn(Cc6ccccc6)c5)c[nH]c4=O)cc3c2)CC1 [Example 186, 1-Benzyl-1H-pyrazole-4-carboxylic acid {5-[5-(1-diethylaminomethyl-cyclopropylmethoxy)-1H-indol-2-yl]-6-oxo-1,6-dihydro-pyridin-3-yl}-amide] | < 100 nM | < 100 nM |
